Reference: article PMC5564600 (Oncotarget, 2017)

Tests used:
Experiment in all cases: biochemical
Assay type in all cases: binding
panel of 442 kinases [1] = molecular target: T1, panel of 442 kinases (Homo sapiens, UniProt P00519, Y253F); conditions: ABL1(Y253F)-phosphorylated; for remaining activity at 1 µM: read-out: % of control at 1 µM
T1 construct: purchased Ambit Biosciences (scanMAXX KINOMEscan)

panel of 442 kinases [2] = molecular target: T2, panel of 442 kinases (Homo sapiens, UniProt P36888, D835H); conditions: FLT3(D835H); for remaining activity at 1 µM: read-out: % of control at 1 µM
T2 construct: purchased Ambit Biosciences (scanMAXX KINOMEscan)
T2 sequence (P36888 27-993 D835H): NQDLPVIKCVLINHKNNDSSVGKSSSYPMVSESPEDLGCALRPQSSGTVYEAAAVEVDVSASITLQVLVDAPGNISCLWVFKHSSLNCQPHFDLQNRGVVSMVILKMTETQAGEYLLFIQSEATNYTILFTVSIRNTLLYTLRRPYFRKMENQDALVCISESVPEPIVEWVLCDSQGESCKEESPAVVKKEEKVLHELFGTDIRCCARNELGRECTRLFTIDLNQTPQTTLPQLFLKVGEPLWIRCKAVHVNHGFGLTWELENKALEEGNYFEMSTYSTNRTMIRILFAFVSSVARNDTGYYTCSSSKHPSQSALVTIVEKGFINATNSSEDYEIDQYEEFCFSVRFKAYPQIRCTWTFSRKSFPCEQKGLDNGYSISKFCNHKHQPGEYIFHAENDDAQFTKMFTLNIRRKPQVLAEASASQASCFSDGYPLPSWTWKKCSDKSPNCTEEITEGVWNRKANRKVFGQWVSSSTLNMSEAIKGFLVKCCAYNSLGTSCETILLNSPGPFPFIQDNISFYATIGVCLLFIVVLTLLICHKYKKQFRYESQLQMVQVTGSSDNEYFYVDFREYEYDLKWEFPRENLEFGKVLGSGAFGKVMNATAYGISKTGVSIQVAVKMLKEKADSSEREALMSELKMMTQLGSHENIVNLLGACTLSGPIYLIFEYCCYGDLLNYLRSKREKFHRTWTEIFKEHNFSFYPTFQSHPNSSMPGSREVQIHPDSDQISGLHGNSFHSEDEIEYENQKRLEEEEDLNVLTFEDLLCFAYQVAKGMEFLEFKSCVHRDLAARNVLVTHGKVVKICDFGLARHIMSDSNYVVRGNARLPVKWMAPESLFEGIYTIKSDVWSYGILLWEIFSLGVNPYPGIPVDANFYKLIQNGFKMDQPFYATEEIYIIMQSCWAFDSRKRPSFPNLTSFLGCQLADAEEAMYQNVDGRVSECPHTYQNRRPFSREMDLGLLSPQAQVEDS

panel of 442 kinases [3] = molecular target: T3, panel of 442 kinases (Homo sapiens, UniProt P42680); conditions: kinase TEC; for remaining activity at 1 µM: read-out: TEC (% of control at 1 µM)
T3 construct: purchased Ambit Biosciences (scanMAXX KINOMEscan)
T3 sequence (P42680 1-631): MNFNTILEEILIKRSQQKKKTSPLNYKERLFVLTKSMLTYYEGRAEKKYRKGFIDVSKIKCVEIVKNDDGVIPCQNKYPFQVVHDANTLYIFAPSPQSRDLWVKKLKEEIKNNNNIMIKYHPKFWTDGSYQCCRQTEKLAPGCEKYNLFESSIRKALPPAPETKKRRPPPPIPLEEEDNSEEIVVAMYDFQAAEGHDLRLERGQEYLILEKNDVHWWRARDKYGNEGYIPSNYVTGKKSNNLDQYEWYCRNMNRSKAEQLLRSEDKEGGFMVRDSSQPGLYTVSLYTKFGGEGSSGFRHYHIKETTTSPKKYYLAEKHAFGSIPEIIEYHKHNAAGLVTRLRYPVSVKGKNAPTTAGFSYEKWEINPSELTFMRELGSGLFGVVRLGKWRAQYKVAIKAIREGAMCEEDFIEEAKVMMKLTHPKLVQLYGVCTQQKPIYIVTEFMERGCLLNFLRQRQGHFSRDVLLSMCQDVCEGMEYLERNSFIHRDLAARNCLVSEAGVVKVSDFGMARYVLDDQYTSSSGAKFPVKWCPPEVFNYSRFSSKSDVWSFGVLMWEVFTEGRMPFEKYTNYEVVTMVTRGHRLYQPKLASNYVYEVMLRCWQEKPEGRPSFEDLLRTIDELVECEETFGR

[4] = 10 µM, read-out: % of control at 10 µM

Row | Compound | remaining activity at 1 µM (panel of 442 kinases [1]) | remaining activity at 10 µM (panel of 442 kinases [1]; [4]) | remaining activity at 1 µM (panel of 442 kinases [2]) | remaining activity at 10 µM (panel of 442 kinases [2]; [4]) | remaining activity at 1 µM (panel of 442 kinases [3]) | remaining activity at 10 µM (panel of 442 kinases [3]; 10 µM, read-out: TEC (% of control at 10 µM))
1 | Nc1cc(C(F)(F)F)c(-c2cc(N3CCOCC3)nc(N3CCOCC3)n2)cn1 [Buparlisib] | 85% | 94% | 89% | 76% | 87% | 100%
2 | Cn1c(=O)n(-c2ccc(C(C)(C)C#N)cc2)c2c3cc(-c4cnc5ccccc5c4)ccc3ncc21 [Dactolisib, 2-methyl-2-[4-(3-methyl-2-oxo-8-quinolin-3-yl-2,3-dihydroimidazo[4,5-c]quinolin-1-yl)-phenyl] propionitrile] | 82% | – | 26% | – | 96% | –
3 | COc1ncc(-c2ccc3nccc(-c4ccnnc4)c3c2)cc1NS(=O)(=O)c1ccc(F)cc1F [Omipalisib] | 100% | – | 100% | – | 100% | –
4 | FC(F)c1nc2ccccc2n1-c1nc(N2CCOCC2)nc(N2CCOCC2)n1 [ZSTK474, 2-(difluoromethyl)-1-[4,6-di(4-morpholinyl)-1,3,5-triazin-2-yl]-1H-benzimidazole] | 96% | – | 100% | – | 89% | –
